# Molecular target: T1, SARM1 (50-724) (Homo sapiens, UniProt Q6SZW1)
# T1 sequence (Q6SZW1 50-724): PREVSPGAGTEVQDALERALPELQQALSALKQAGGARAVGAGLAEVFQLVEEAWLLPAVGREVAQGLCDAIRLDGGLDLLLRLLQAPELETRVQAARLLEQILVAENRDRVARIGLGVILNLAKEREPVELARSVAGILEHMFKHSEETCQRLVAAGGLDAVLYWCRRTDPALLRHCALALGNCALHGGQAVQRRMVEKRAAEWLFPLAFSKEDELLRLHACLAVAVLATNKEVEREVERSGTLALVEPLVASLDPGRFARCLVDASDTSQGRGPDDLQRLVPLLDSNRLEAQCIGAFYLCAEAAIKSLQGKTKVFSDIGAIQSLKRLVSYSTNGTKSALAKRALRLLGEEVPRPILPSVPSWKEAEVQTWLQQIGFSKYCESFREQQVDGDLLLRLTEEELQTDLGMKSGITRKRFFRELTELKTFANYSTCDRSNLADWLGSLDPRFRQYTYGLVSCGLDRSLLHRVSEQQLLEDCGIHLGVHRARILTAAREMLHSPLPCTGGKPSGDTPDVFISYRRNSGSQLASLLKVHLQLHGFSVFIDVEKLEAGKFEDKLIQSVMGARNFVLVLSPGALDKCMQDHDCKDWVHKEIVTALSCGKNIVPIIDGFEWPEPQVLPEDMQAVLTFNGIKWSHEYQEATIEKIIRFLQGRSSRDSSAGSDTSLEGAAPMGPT
# Experiment: biochemical
# Procedure: An enzymatic assay was performed in a 384-well plate using Dulbecco's phosphate-buffered saline (PBS) as the reaction buffer. […] The reaction was initiated by adding a mixture of 200 μM nicotinamide mononucleotide (NMN) as activator and 100 μM NAD^+ as substrate. After 1 h of incubation at room temperature, the reaction was terminated with 10 times volume of 70% acetonitrile, then centrifuged at 3800 rpm for 10 min.
row,Compound,IC50 [µM]
1,"CC(Nc1ccc2c(c1)C(=O)NCC2)c1ccc(Cl)c(F)c1 (racemic) [Example 96, 7-((1-(4-chloro-3-fluorophenyl)ethyl)amino)-3,4-dihydroisoquinolin-1(2H)-one]",> 1
2,"O=C1NCCc2ccc(NS(=O)(=O)c3ccc(F)c(Cl)c3)cc21 [Example 9A, 3-chloro-4-fluoro-N-(1-oxo-1,2,3,4-tetrahydroisoquinolin-7-yl)benzenesulfonamide]",> 1
3,"Cc1c(F)cccc1S(=O)(=O)Nc1ccc2c(c1)CCCC2 [Compound 14, 3-fluoro-2-methyl-N-(5,6,7,8-tetrahydronaphthalen-2-yl)benzenesulfonamide]",0.5 to 1
4,"CC(Nc1ccc2cc[nH]c(=O)c2c1)c1nn2c(c1Cl)CCC2 (racemic) [Example 221, 7-((1-(3-chloro-5,6-dihydro-4H-pyrrolo[1,2-b]pyrazol-2-yl)ethyl)amino)isoquinolin-1(2H)-one]",0.1 to 0.5
5,"C=CCCC(Nc1ccc2c(c1)C(=O)NCC2)c1cc(C)cc(F)c1 (racemic) [Example 145, 7-((1-(3-fluoro-5-methylphenyl)pent-4-en-1-yl)amino)-3,4-dihydroisoquinolin-1(2H)-one]",0.5 to 1
6,"Cc1cccc(S(=O)(=O)Nc2ccc3c(c2)C(=O)NCC3)c1C [Compound 50, 2,3-dimethyl-N-(1-oxo-1,2,3,4-tetrahydroisoquinolin-7-yl)benzenesulfonamide]",0.1 to 0.5
7,"CC(Nc1ccc2nc[nH]c(=O)c2n1)c1ccc(F)c(Cl)c1Cl (racemic) [Compound 384, 6-((1-(2,3-dichloro-4-fluorophenyl)ethyl)amino)pyrido[3,2-d]pyrimidin-4(3H)-one]",0.1 to 0.5
8,"CCC(Nc1ccc2nc[nH]c(=O)c2c1)c1nccc(Cl)c1Cl (racemic) [Example 155, 6-((1-(3,4-dichloropyridin-2-yl)propyl)amino)quinazolin-4(3H)-one]",0.1 to 0.5

# More lines, now with the values ahead:
row,IC50 [µM],Compound
1,< 0.1,"CC(Nc1cc(F)c2ncn(-c3nc[nH]n3)c(=O)c2c1)c1nc(Cl)c(Cl)s1 (racemic) [Example 359, 6-((1-(4,5-dichlorothiazol-2-yl)ethyl)amino)-8-fluoro-3-(1H-1,2,4-triazol-3-yl)quinazolin-4(3H)-one]"
2,< 0.1,"CCC(C(N)=O)c1ccc(NS(=O)(=O)c2cccc(Cl)c2Cl)cc1 (single isomer, unassigned) [Compound 270]"
3,< 0.1,"CC1(C)C(=O)Nc2cc(NS(=O)(=O)c3cccc(Cl)c3Cl)ccc21 [Compound 204, 2,3-dichloro-N-(3,3-dimethyl-2-oxo-indolin-6-yl)benzenesulfonamide]"
4,< 0.1,CC(Nc1ccc2cn[nH]c(=O)c2c1)c1c(Cl)ccc(F)c1Cl (stereo not drawn) [Example 199]
5,< 0.1,"O=c1[nH]ccc2ccc(NS(=O)(=O)c3c(F)ccc(Cl)c3Cl)cc12 [Compound 70, 2,3-dichloro-6-fluoro-N-(1-oxo-1,2-dihydroisoquinolin-7-yl)benzenesulfonamide]"
6,< 0.1,"Cc1n[nH]c2cc(NC(C)c3nc(Cl)c(Cl)s3)ccc12 (racemic) [Compound 261, N-(1-(4,5-dichlorothiazol-2-yl)ethyl)-3-methyl-1H-indazol-6-amine]"
7,< 0.1,"CC(Nc1ccc2cc[nH]c(=O)c2c1)c1nn(C)c(Cl)c1Cl (racemic) [Compound 256, 7-((1-(4,5-dichloro-1-methyl-1H-pyrazol-3-yl)ethyl)amino)isoquinolin-1(2H)-one]"
8,< 0.1,Cc1n[nH]c(=O)c2cc(NC(CCO)c3nc(Cl)c(Cl)s3)ccc12 (racemic) [Example 294]
9,< 0.1,"Cc1n[nH]c2cc(NS(=O)(=O)c3cccc(Cl)c3Cl)ccc12 [Compound 58, 2,3-dichloro-N-(3-methyl-1H-indazol-6-yl)benzenesulfonamide]"
10,< 0.1,"CC(Nc1ccc2c(c1)N(C(N)=O)CC2(C)C)c1nc(Cl)c(Cl)s1 (racemic) [Compound 276, 6-((1-(4,5-dichlorothiazol-2-yl)ethyl)amino)-3,3-dimethylindoline-1-carboxamide]"
